From ChEMBL document CHEMBL5625207, “RIPK2 inhibitors for disease therapy: Current status and perspectives” (Eur J Med Chem, 2023)
One block for each compound: values may come before it.

What was measured:
[1] = target: T1, Receptor-interacting serine/threonine-protein kinase 2 (Homo sapiens, UniProt O43353); test: Inhibition of RIPK2 (unknown origin) expressed in Escherichia coli
[2] = target: T1, Receptor-interacting serine/threonine-protein kinase 2; test: Inhibition of full length FLAG His-tagged RIPK2 (unknown origin) expressed in Baculovirus by fluorescence polarization assay
[3] = target: T1, Receptor-interacting serine/threonine-protein kinase 2; test: Inhibition of RIPK2 (unknown origin) using (CRRKSLVGTPYWMAPE) peptide as substrate pre-incubated for 60 mins followed by substrate addition and measured after 2 hrs by fluorescence polarization assay
[4] = target: von Hippel-Lindau disease tumor suppressor/Receptor-interacting serine/threonine-protein kinase 2 (Homo sapiens, UniProt O43353+P40337); test: Protac activity at VHL/RIPK2 in human THP-1 cells assessed as RIPK2 degradation measured after 16 hrs by Western blot analysis; assay type: cell-based
[5] = target: T1, Receptor-interacting serine/threonine-protein kinase 2; test: Inhibition of RIPK2 (unknown origin) by ADP-Glo assay
[6] = target: T1, Receptor-interacting serine/threonine-protein kinase 2; test: Inhibition of RIPK2 (unknown origin)

T1 sequence (O43353 whole entry): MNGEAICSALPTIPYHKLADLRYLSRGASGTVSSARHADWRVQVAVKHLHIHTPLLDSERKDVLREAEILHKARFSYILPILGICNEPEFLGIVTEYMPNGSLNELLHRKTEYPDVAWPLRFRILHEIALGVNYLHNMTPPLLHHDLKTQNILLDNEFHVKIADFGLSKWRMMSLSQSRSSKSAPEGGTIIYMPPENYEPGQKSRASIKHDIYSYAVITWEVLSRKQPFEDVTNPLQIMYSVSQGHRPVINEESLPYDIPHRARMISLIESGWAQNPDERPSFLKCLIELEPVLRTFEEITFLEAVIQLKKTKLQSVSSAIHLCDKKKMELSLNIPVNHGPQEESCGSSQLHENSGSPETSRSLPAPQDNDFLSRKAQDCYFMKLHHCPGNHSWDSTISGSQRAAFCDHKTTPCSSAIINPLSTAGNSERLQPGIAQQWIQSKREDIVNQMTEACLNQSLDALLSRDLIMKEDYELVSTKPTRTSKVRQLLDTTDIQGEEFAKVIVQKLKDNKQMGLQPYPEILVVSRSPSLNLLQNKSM
Chain of von Hippel-Lindau disease tumor suppressor/Receptor-interacting serine/threonine-protein kinase 2 (O43353 whole entry): as above
Chain of von Hippel-Lindau disease tumor suppressor/Receptor-interacting serine/threonine-protein kinase 2 (P40337 whole entry): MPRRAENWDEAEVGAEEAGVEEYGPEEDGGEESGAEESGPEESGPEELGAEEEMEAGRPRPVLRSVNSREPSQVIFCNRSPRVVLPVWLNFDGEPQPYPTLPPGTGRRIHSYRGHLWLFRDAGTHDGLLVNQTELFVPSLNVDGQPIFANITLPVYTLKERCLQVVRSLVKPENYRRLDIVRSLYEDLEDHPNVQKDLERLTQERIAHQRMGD

SMILES: c1cc2cc(n1)NCCOCCNc1ccc3ncc-2n3n1
IC50 [1]: 14.1 nM
IC50 [2]: 14.1 nM

SMILES: Cc1ccc(-c2nn(C(C)(C)CN(C)C)c3ncnc(N)c23)cc1
IC50 [2]: 10 nM
IC50 [3]: 1010 nM

SMILES: Cc1ccc(-c2cn([C@H]3CC[C@@H](N)CC3)c3ncnc(N)c23)c(F)c1
IC50 [6]: 0.6 nM
IC50 [2]: 0.6 nM

Further lines, results first:

IC50 [4]: 2 nM
SMILES: Cc1ncsc1-c1ccc(CNC(=O)C2C[C@H](O)CN2C(=O)[C@@H](NC(=O)COCCOCCOCCOCCOc2cc3nccc(Nc4ccc5scnc5c4)c3cc2S(=O)(=O)C(C)(C)C)C(C)(C)C)cc1 (some centres undefined)

IC50 [5]: 5.1 nM
IC50 [2]: 5.1 nM
SMILES: c1cc(-c2ccc3ncnc(Nc4ccc5scnc5c4)c3c2)ccn1
